Results from US20170122958A1, “Enzymes Functional Probes” (University of Dundee, priority 2013, published 2017).

Legend:
[1] = target: T1, brdt(1)L063A (Homo sapiens, UniProt Q58F21, L63A); assay: DSF thermal shift; type: binding; details: mutant
T1 construct: Plasmids of the eight single BET bromodomain constructs Brd2(1), Brd2(2), Brd3(1), Brd3(2), Brd4(1), Brd4(2), Brdt(1) and Brdt(2); His6 (N); made in house; host or cells: E. coli BL21(DE3)

[2] = tested on: Brd2(1) and (2) wild type and leucine to alanine, valine and isoleucine mutants; assay: DSF thermal stabilization (FIG. 15); type: binding, human; details: result in words
Procedure: (§1) DSF assays were performed on a LightCycler®480 from Roche or a Mx3005P Real Time PCR machine from Stratagene. […] SYPRO®Orange from Invitrogen Molecular Probes® was used as a reporter dye to monitor the denaturing process of the proteins. Samples were assayed on a 96-well plate with final protein concentrations of 2 μM for the LightCycler®480 and 6 μM for Mx3005P. Compounds were added at a final concentration of 10 μM for the LightCycler®480 and 30 μM for Mx3005P, while the tetra acetylated histone peptide was added to a final concentration of 100 μM and 300 μM respectively. […] The temperature was raised with a step of 0.6° C. per minute from 37° C. to 95° C. with the LightCycler®480 collecting 39 measurements per ° C., and 1° C. per minute from 25° C. to 95° C. with Mx3005P, collecting fluorescence readings at the end of each interval. Each sample was run in triplicates.
(§2) Collected data was analysed by IGOR Pro 6, a scientific software tool from Wave Metrics, Inc. Analysis was done following the recommendations of Niesen et al.. Fluorescence intensity was plotted as a function of temperature, generating a sigmoidal curve described by a two-state transition from folded to unfolded protein. Curves were fitted by the following sigmoidal equation: […]
(§3) A1 and A2 are the values of minimum and maximum intensities, respectively, x0 is the inflection point and dx is the rate. Fitted curves were differentiated in IGOR Pro 6 and the maximum of the first derivative was identified using the same program. These values correspond to the inflection points of the transition curves and thus to the melting temperatures of the proteins (Tm).

[3] = target: Brd2(1)*(Leu110-Ala) (Homo sapiens, UniProt P25440, L110A); assay: DSF thermal shift; type: binding; set-up: Plasmids of the eight single BET bromodomain constructs Brd2(1), Brd2(2), Brd3(1), Brd3(2); His6 (N); made in house; host or cells: E. coli BL21(DE3); details: mutant
Sequence of Brd2(1)*(Leu110-Ala) (P25440 74-180 L110A limits assumed): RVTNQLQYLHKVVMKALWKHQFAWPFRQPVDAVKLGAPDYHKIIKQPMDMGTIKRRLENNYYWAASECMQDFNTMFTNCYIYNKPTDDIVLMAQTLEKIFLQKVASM
Procedure: as §1, §2, §3

[4] = target: Brd2(2)*(Leu383-Ala) (Homo sapiens, UniProt P25440, L383A); assay: DSF thermal shift; type: binding; set-up: Plasmids of the eight single BET bromodomain constructs Brd2(1), Brd2(2), Brd3(1), Brd3(2); His6 (N); made in house; host or cells: E. coli BL21(DE3); details: mutant
Sequence of Brd2(2)*(Leu383-Ala) (P25440 344-453 L383A limits assumed): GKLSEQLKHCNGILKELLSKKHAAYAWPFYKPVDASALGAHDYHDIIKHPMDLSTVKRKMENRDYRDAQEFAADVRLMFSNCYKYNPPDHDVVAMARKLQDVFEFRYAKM
Procedure: as §1, §2, §3

[5] = target: T2, Brd4(1) (Homo sapiens, UniProt O60885); assay: DSF thermal shift; type: binding; details: wild type
T2 construct: Plasmids of the eight single BET bromodomain constructs Brd2(1), Brd2(2), Brd3(1), Brd3(2), Brd4(1), Brd4(2), Brdt(1) and Brdt(2); His6 (N); made in house; host or cells: E. coli BL21(DE3)

[6] = target: T3, Brd4(2) (Homo sapiens, UniProt O60885); assay: DSF thermal shift; type: binding; details: wild type
T3 construct: Plasmids of the eight single BET bromodomain constructs Brd2(1), Brd2(2), Brd3(1), Brd3(2), Brd4(1), Brd4(2), Brdt(1) and Brdt(2); His6 (N); made in house; host or cells: E. coli BL21(DE3)

[7] = target: T4, brd4(1)L094A (Homo sapiens, UniProt O60885, L94A); assay: DSF thermal shift; type: binding; details: mutant
T4 construct: Plasmids of the eight single BET bromodomain constructs Brd2(1), Brd2(2), Brd3(1), Brd3(2), Brd4(1), Brd4(2), Brdt(1) and Brdt(2); His6 (N); made in house; host or cells: E. coli BL21(DE3)

[8] = target: T5, brd4(2)L387A (Homo sapiens, UniProt O60885, L387A); assay: DSF thermal shift; type: binding; details: mutant
T5 construct: Plasmids of the eight single BET bromodomain constructs Brd2(1), Brd2(2), Brd3(1), Brd3(2), Brd4(1), Brd4(2), Brdt(1) and Brdt(2); His6 (N); made in house; host or cells: E. coli BL21(DE3)

[9] = target: T6, Brd2 tandem with mutations on both bromodomains (LA-LA) (Homo sapiens, UniProt P25440, L110A/L383A); assay: ITC of compound into Brd2 tandem construct; type: binding
T6 construct: containing the first and the second bromodomain, as well as the natural linker between them; His6; SUMO (cleaved yes); made in house; host or cells: E. coli BL21(DE3)
T6 sequence (P25440 71-455 L110A/L383A limits assumed): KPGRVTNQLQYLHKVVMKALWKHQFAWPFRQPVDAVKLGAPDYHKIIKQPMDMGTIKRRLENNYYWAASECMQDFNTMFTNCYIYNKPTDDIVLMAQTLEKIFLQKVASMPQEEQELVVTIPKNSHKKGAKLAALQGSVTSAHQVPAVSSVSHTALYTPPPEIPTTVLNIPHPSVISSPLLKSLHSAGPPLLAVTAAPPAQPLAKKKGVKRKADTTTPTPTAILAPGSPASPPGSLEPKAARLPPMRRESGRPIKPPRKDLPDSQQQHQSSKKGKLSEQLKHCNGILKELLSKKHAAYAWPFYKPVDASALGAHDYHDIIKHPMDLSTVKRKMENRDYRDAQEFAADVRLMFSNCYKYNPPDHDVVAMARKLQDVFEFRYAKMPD
Procedure: (§4) Tandem constructs of Brd2 with and without leucine to alanine mutations were expressed and purified for this last part of the project. […] Nevertheless, ITC experiments were performed with four of these constructs, a tandem with no mutation (WT-WT), a tandem with the mutation in the first bromodomain (LA-WT), a tandem with the mutation on the second bromodomain (WT-LA) and a tandem with mutations on both bromodomains (LA-LA). Normal titrations (compound into syringe, protein into sample cell) with compound 11 were performed for this assay. For the WT-WT construct, 300 μM of the compound was injected into a solution of the tandem at 10 μM. For the LA-WT and WT-LA constructs, the compound was injected at 150 μM into 15 μM of the protein and for the LA-LA construct, 150 μM compound was injected into a solution of 10 μM of this tandem construct. The ITC assays were run at 30° C. at 1% DMSO.
(§5) ITC experiments were carried out on a ITC200 instrument from MicroCal™ Experiments were conducted at 3 different temperatures 15° C., 25° C. and 30° C., while stirring at 1000 rpm. Buffers of proteins, peptide and compounds were matched to 20 mM HEPES pH 7.5 at 25° C. and 100 mM NaCl. Frozen protein was buffer exchanged as described for the DSF experiments. Each titration comprised 1 initial injection of 0.4 μl lasting 0.8 s, followed by 19 injections of 2 μl lasting 4 s each at 2 min intervals. The initial injection was discarded during data analysis. Standard and reverse titrations were conducted depending on the binding partners.
(§6) All the data was fitted to a single binding site model using the Microcal LLC ITC200 Origin software provided by the manufacturer to yield enthalpies of binding (ΔH) and binding constants (Kas). Further thermodynamic parameters were calculated from these values (changes in entropy ΔS, changes in free energy AG and dissociation constants (Kds)).

[10] = target: T7, Brd2 tandem with no mutation (WT-WT) (Homo sapiens, UniProt P25440); assay: ITC of compound into Brd2 tandem construct; type: binding
T7 construct: containing the first and the second bromodomain, as well as the natural linker between them; His6; SUMO (cleaved yes); made in house; host or cells: E. coli BL21(DE3)
T7 sequence (P25440 71-455 limits assumed, change not shown): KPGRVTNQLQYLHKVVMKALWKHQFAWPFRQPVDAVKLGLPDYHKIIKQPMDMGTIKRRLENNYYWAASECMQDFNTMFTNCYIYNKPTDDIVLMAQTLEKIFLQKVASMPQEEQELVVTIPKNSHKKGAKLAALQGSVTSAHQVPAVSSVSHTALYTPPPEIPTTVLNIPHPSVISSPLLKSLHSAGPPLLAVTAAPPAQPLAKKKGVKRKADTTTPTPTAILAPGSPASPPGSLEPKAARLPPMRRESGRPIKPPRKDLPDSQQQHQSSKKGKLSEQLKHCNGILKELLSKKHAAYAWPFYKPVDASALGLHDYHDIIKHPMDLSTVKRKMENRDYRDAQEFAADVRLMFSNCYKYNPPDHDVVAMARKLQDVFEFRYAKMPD
Procedure: as §4, §5, §6

[11] = target: T8, Brd2 tandem with the mutation in the first bromodomain (LA-WT) (Homo sapiens, UniProt P25440, L110A); assay: ITC of compound into Brd2 tandem construct; type: binding
T8 construct: containing the first and the second bromodomain, as well as the natural linker between them; His6; SUMO (cleaved yes); made in house; host or cells: E. coli BL21(DE3)
T8 sequence (P25440 71-455 L110A limits assumed): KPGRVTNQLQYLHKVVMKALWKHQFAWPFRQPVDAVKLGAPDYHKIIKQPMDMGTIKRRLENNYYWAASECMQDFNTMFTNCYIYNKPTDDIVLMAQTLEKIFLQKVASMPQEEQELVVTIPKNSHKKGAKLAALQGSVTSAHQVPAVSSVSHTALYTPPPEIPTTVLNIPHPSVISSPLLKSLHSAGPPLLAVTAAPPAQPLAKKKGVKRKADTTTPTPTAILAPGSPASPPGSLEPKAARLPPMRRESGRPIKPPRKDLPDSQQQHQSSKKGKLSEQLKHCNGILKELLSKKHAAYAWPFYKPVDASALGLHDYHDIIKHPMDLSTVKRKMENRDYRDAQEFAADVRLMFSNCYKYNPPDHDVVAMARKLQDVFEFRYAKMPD
Procedure: as §4, §5, §6

[12] = target: T9, WT GFP-Brd4 (Homo sapiens, UniProt O60885); assay: FRAP in transfected U2OS cells; type: cell-based; details: WT GFP-Brd4, 1 μM compound
T9 construct: full length human GFP-BRD4 transfected into human osteosarcoma cells (U2OS); expressed in transfected cells; host or cells: U2OS human osteosarcoma cells
Procedure: The data shown represent the mean±SEM (n=35-50). Statistical significance was determined by one-tailed t tests: *<0.05; **P<0.01; ***P<0.001; n.s. not significant.
Fluorescence recovery after photobleaching (FRAP) experiments were performed in human osteosarcoma U2OS cells transfected with mammalian expression constructs encoding wild type and mutant GFP chimeras of Brd4. Cells were cultured in DMEM (Gibco) supplemented with fetal bovine serum, Penicillin/Streptamycin and L-Glutamine. Cells were seeded into glass bottom dishes (Willco) to about 40% confluency and transfected with the constructs using Effectene (QIAGEN) at least 18 h before the experiment. Treatment of cells with 1 μM compounds (in DMSO) was performed 12-15 h before the experiment. Cells without compound treatment were treated with DMSO as a vehicle control at least 15 h before the experiment. DMEM was exchanged for CO2-independent phenol red-free media (Gibco) for the experiment. […] A spot was bleached with a single pulse at 100% laser power for 0.2 s and recovery images were acquired using a coolsnap HQ camera with a 2×2 bin at 0.05 s exposure. […] FRAP data was analysed using the SoftWorX software. It was fitted to a 2-dimensional recovery curve using the method of Axelrod as implemented within the software and half-times of recovery were calculated.

| SMILES | ΔTm Brdt(1)* (L063A) [1] | Thermal stabilization of Brd2 mutants versus wild types (FIG. 15) [2] | Thermal stabilisation brd2(1)L110A [3] | ΔTm Brd2(1)*(Leu110-Ala) [3] | Thermal stabilisation brd2(1)L110A ([3]; listed as compound 7) | Thermal stabilisation brd2(2)L383A [4] | ΔTm Brd2(2)*(Leu383-Ala) [4] | Thermal stabilisation brd2(2)L383A ([4]; listed as compound 7) | ΔTm Brd4(1) [5] | ΔTm Brd4(2) [6] | ΔTm Brd4(1)* (L094A) [7] | ΔTm Brd4(2)* (L387A) [8] | Kd [9] | Kd [10] | Kd [11] | Fluorescence recovery after photobleaching (recovery time) [12] |
| --- | --- | --- | --- | --- | --- | --- | --- | --- | --- | --- | --- | --- | --- | --- | --- | --- |
| COC(=O)[C@H](C)[C@@H]1N=C(c2ccc(Cl)cc2)c2cc(OC)ccc2-n2c(C)nnc21 (racemic) [Compound 7, (+−)-methyl (R)-2-((S)-6-(4-chlorophenyl)-8-methoxy-1-methyl-4H-benzo[f][1,2,4]triazolo[4,3-a][1,4]diazepin-4-yl)propanoate] | 5.8 ± 0.3 K | increased thermal shifts of the leucine to alanine mutants | 7.9 ± 0.2 °C | 7.9 ± 0.2 K | 7.9 °C | 9.3 ± 0.2 °C | 9.3 ± 0.2 K | 9.3 °C |  |  |  |  |  |  |  |  |
| CC[C@@H](C(=O)OC)[C@@H]1N=C(c2ccc(Cl)cc2)c2cc(OC)ccc2-n2c(C)nnc21 (racemic) [Compound 11, (+−)-methyl (R)-2-((S)-6-(4-chlorophenyl)-8-methoxy-1-methyl-4H-benzo[f][1,2,4]triazolo[4,3-a][1,4]diazepin-4-yl)butanoate] | 5.4 ± 0.3 K | increased thermal shifts of the leucine to alanine mutants |  | 7.6 ± 0.2 K |  |  | 8.1 ± 0.2 K |  | 1.5 ± 0.4 K | 1.5 ± 0.0 K | 10.0 ± 0.2 K | 7.0 ± 0.1 K | ~56 nM | ~15800 nM | ~160 nM | no reduction of recovery times relative to vehicle-treated cells |
